The text below walks through data of the Deep4Chem optical property database.

The structures appear in SMILES notation. “And” between values parts separate entries of the source, which are not always exact repeats. Equal entries are not always repeated.

The data set in a line: solvent given as SMILES.

Molecule `CC(C)(C)c1ccc(-n2c(-c3ccc(-c4ccc(N(c5ccccc5)c5ccccc5)cc4)s3)nc3c4ccccc4c4ccccc4c32)cc1` came in with an emission maximum (in ClCCl) of 419 nm.
On to `CCC1=C(C)C2=Cc3c(I)c(I)cn3[B-](F)(F)[N+]2=C1C`, for which the emission maximum is, setting by setting: (in C1CCCCC1) 537 nm; (in CC(C)=O) 544 nm; (in CCO) 541.5 nm; (in CCOC(C)=O) 539.5 nm; (in CO) 541.5 nm; (in OCC(F)(F)F) 538 nm.
For the setting “in ClC(Cl)Cl”, `CSc1ccc(C#Cc2ccc(C#Cc3ccc(C#Cc4ccccc4C#N)cc3C#N)cc2C#N)cc1` registered an emission maximum of 455 nm.
In turn, `CC[Si](CC)(CC)Oc1cccc(O[Si](CC)(CC)CC)c1-c1c2ccccc2c(-c2c(O[Si](CC)(CC)CC)cccc2O[Si](CC)(CC)CC)c2ccccc12` came in with an emission maximum (in C1CCCCC1) of 432 nm.
For the molecule `CN(C)c1ccc(N(C)C)cc1`, under “in C1CCCCC1”, the emission maximum is recorded as 394.48 nm.
Where the note is “in ClCCl”, `Cc1ccc2nc3cc4c(cc3c(-c3ccccc3)c2c1)[Si](C)(C)O[Si]4(C)C` gave an emission maximum of 504 nm.
`CCC1(CC)c2ccccc2-c2c1c1c(c3c2C(CC)(CC)c2cc(-c4cccs4)ccc2-3)C(CC)(CC)c2cc(N(c3ccccc3)c3ccccc3)ccc2-1` returned an emission maximum (in C1CCOC1) of 422 nm.
`CCN1c2ccc(/C=N/Nc3ccccn3)cc2Sc2cc(-c3cccc4ccccc34)ccc21`: the emission maximum is, setting by setting: (in C1CCOC1) 487 nm; (in CS(C)=O) 498 nm; (in Cc1ccccc1) 482 nm; (in ClCCl) 491 nm.
Regarding `COc1ccc(C2=Cc3cc4ccccc4cc3P2(=O)c2ccccc2)cc1` (centres undefined), for the setting “in ClCCl”, the emission maximum was found to be 448 nm.
For the molecule `COC(=O)c1[nH]c(-c2ccc(Br)cc2)c2nnc3ccc(OC)cc3c12`, for the setting “in ClCCl”, the emission maximum stood at 475 nm.
On the same count and under the same terms, under `CN(C)c1cccc(/C=C/c2ncc(-c3ccc(OCc4ccccc4)c(OCc4ccccc4)c3)o2)c1` stands 490 nm.
`CCCCCCc1ccc(-n2c3c4cccc(OC)c4nc(-c4ccc(OC)cc4)c3c3c2c2c(-c4ccc(OC)cc4)nc4c(OC)cccc4c2n3-c2ccc(CCCCCC)cc2)cc1` yielded an emission maximum (in ClC(Cl)Cl) of 453 nm.
As to `Cc1cc(C)n2c1C=C1c3ccccc3C(c3c[nH]c4ccccc34)=[N+]1[B-]2(F)F`, the emission maximum by setting is: (in C1CCOC1) 606 nm; (in CC#N) 602 nm; (in CCCCCC) 598 nm; (in CO) 603 nm; (in Cc1ccccc1) 608 nm; (in ClCCl) 606 nm.
In the case of `CC1(C)c2ccccc2N(c2ccc3c(c2)C(c2ccccc2)(c2ccccc2)c2cc(N4c5ccccc5C(C)(C)c5ccccc54)ccc2S3(=O)=O)c2ccccc21`, where the note is “in Cc1ccccc1”, the emission maximum stood at 448 nm.
In turn, `N#Cc1ccc(-c2ccc3c(c2)c2cc(-c4ccc(C#N)cc4)ccc2c2c3nc(-c3ccc(-c4ccc(N(c5ccccc5)c5ccccc5)cc4)cc3)n2-c2ccccc2)cc1` had an emission maximum (in C1CCOC1) of 468.68 nm, an emission maximum (in CC#N) of 519.93 nm, an emission maximum (in CCCCCC) of 421.18 nm and an emission maximum (in CCOCC) of 449.2 nm.
The molecule `CCN(CC)c1ccc2c(c1)oc(=O)c1c(C)nc3c(cnn3-c3ccccc3)c12` yielded an emission maximum (in ClCCl) of 439 nm.
For `COc1ccc(-c2oc3cccc4c5c(-c6ccc(OC)cc6)/c(=N/S(=O)(=O)C(F)(F)F)oc6cccc(c2c34)c65)cc1`, the emission maximum (in ClC(Cl)Cl) is 612 nm.
For `COc1ccc(/C=C/c2cc(/C=C/c3ccc(OC)cc3)nc(/C=C/c3ccc(N(c4ccccc4)c4ccccc4)cc3)n2)cc1`, the emission maximum is 511 nm (in C1CCOC1); 627 nm (in CC#N); 572 nm (in CC(C)=O); 439 nm (in CCCCCCC); 622 nm (in CS(C)=O); 466 nm (in Cc1ccccc1). This molecule came in with an emission maximum (in ClCCl) of 558 nm.
As for `CCn1c2cc(OC)ccc2c2c3nsnc3c3c4ccc(OC)cc4n(CC)c3c21`, the emission maximum reads like this: (in CN(C)C=O) 557 nm; (in Cc1ccccc1) 517 nm; (in ClCCl) 553 nm.
`CC(C)(C)NC(=O)c1ccc(C(=O)NC(C)(C)C)c2c1c1c3ccccc3c3ccccc3c1c1c3ccccc3c3ccccc3c21` showed an emission maximum (in ClCCl) of 476 nm.
Turning to `CCOC(=O)CCCCCn1c2ccc(F)cc2c(=O)c2cc3c(cc21)c(=O)c1cc(F)ccc1n3CCCCCC(=O)OCC`, for the setting “in CO”, the emission maximum was determined as 566 nm.
As for `O=C([O-])c1ccccc1-c1c2cc(Br)c(=O)c(Br)c-2oc2c(Br)c([O-])c(Br)cc12`, the emission maximum came to 551 nm (in CC(C)O), 550 nm (in CCO), 542 nm (in CO) and 538 nm (in O).
`C(=C\c1ccncn1)/c1ccc(N(c2ccccc2)c2ccc(/C=C/c3ccncn3)cc2)cc1` yielded an emission maximum (in ClCCl) of 555 nm.
For `c1cnc(-c2c3ccccc3c(-c3ncccn3)c3ccccc23)nc1`, the emission maximum is, setting by setting: (in CCO) 440 nm; (in ClCCl) 439 nm.
In the case of `CCCCN(c1ccccc1)c1ccc2c(c1)C(CC)(CC)c1cc(/C=C/c3ccc(/C=C(\C#N)C(=O)O)s3)ccc1-2`, the emission maximum was 622 nm (in C1CCOC1); 621 nm (in C1COCCO1); 518 nm (in CC#N); 576 nm (in CC(C)=O); 590 nm (in CCOC(C)=O); 605 nm (in CN(C)C=O). Moreover, the emission maximum (in CS(C)=O) was found to be 520 nm and the emission maximum (in ClCCl) is reported as 595 nm.
`COc1ccc(/C=C/c2cc(/C=C/c3ccc(N(c4ccccc4)c4ccccc4)cc3)nc(/C=C/c3ccc(N(C)C)cc3)n2)cc1` gave an emission maximum (in C1CCOC1) of 436 nm; an emission maximum (in CC#N) of 463 nm; an emission maximum (in CC(C)=O) of 452 nm; an emission maximum (in CCCCCCC) of 398 nm; an emission maximum (in CS(C)=O) of 485 nm; an emission maximum (in Cc1ccccc1) of 411 nm. Moreover, the emission maximum (in ClCCl) is recorded as 548 nm.
Consider `CC1=CC(C)=[N+]2C1=C(c1c3ccccc3cc3ccccc13)c1c(C)cc(C)n1[B-]2(F)F`, for which the emission maximum by setting is: (in CC#N) 512 nm; (in CCCCCC) 515 nm; (in CCO) 513 nm; (in CN(C)C=O) 518 nm; (in Cc1ccccc1) 521 nm; (in ClCCl) 517 nm.
Turning to `C1=Cc2nc1c(-c1cccs1)c1ccc([nH]1)c(-c1cccs1)c1nc(c(-c3cccs3)c3ccc([nH]3)c2-c2cccs2)C=C1`, the emission maximum is listed as 665 nm (in CN(C)C=O) and 670 nm (in ClCCl).
With `COC(=O)c1c(-c2cc3ccccc3oc2=O)nn(-c2cccc(F)c2)c1C(=O)OC`, the emission maximum (in ClCCl) is given as 402 nm.
Same read-out and setting: under `CCOC(=O)C1=C(C(=O)OCC)C2(c3ccccc3-c3c(Br)cc(Br)cc32)C2(/C=C/c3ccc(Cl)cc3)c3cc(OC)c(OC)cc3CCN12` (centres undefined) stands 495 nm.
Still for that read-out and setting: under `Cc1cc2ccccc2c2c1c1ccccc1n2-c1ccc(C#N)cc1` stands 470 nm; under `CC(C)(C)C1CCC(=CS/C=C/c2ccc(/C=C/SC=C3CCC(C(C)(C)C)CC3)cc2)CC1` (centres undefined), 422 nm.
Molecule `Cc1ccc(N(c2ccc(C)cc2)c2ccc(-c3ccc(-c4ccc(N(c5ccc(C)cc5)c5ccc(C)cc5)cc4)c4nsnc34)cc2)cc1` registered an emission maximum (in Cc1ccccc1) of 628 nm and an emission maximum (in ClCCl) of 609 nm.
For `Cc1cc(C)c(B(c2c(C)cc(C)cc2C)c2c(C)cc(-n3c4ccc(N(c5ccccc5)c5ccccc5)cc4c4cc(N(c5ccccc5)c5ccccc5)ccc43)cc2C)c(C)c1`, the emission maximum by setting is: (in Cc1ccccc1) 495 nm; (in O=P(c1ccccc1)(c1ccccc1)c1ccccc1Oc1ccccc1P(=O)(c1ccccc1)c1ccccc1) 487 nm.
In turn, `CN1c2cc3nc4cc(F)c(F)cc4nc3cc2N(C)C1(C)C` returned an emission maximum (in CCO) of 488 nm.
`Cc1cc(C2=Cc3cccc[n+]3[B-](F)(F)O2)ccc1N(C)C`: for the setting “in ClC(Cl)Cl”, the emission maximum turned out to be 491 nm.
Molecule `CN1C(=CC2=C([O-])C(=CC3=[N+](C)c4ccccc4C3(C)C)C2=O)C(C)(C)c2ccccc21` showed an emission maximum (in ClC(Cl)Cl) of 643 nm.
Take `COc1ccc(-c2ccc(-c3ccc(C#N)cc3)cc2)cc1`: the emission maximum (in C1CCCCC1) is recorded as 377 nm.
For `ClP1(Cl)=NP(Cl)(Cl)=NP(Cl)(Oc2ccc3ccc4cccc5ccc2c3c45)=N1` (centres undefined), the emission maximum (in ClCCl) worked out at 417 nm.
In turn, `C[Si](C)(C)c1ccc(-c2ccc(-c3ccc(-c4ccc(-c5ccc([Si](C)(C)C)s5)s4)c4nsnc34)s2)s1` came in with an emission maximum (in C1CCOC1) of 656 nm.
`COc1ccc(-c2nc(-c3ccc(-c4nc(-c5ccc(OC)cc5)c(-c5ccc(OC)cc5)[nH]4)cc3)[nH]c2-c2ccc(OC)cc2)cc1`: the emission maximum (in CC#N) is 416.5 nm and 440 nm.
Regarding `COc1ccc(C(=Cc2ccc(C#N)cc2)c2ccc(OC)cc2)cc1`, under “in C1CCOC1”, the emission maximum came to 395 nm.
With `CN(C)c1ccc(-c2nc(-c3ccc(N(C)C)cc3)c3ccccc3n2)cc1`, the emission maximum was determined as 436 nm (in C1CCCCC1); 528 nm (in C1CCOC1); 571 nm (in CC#N); 575 nm (in CS(C)=O); 530 nm (in ClCCl).
Where the note is “in CS(C)=O”, `O=c1c2cc(S(=O)(=O)Cl)ccc2[nH]c2ccc(S(=O)(=O)Cl)cc12` yielded an emission maximum of 417 nm.
`F[Si-](F)(c1ccccc1)(c1ccccc1)c1cccc2ccccc12` yielded an emission maximum (in C1CCOC1) of 338 nm.
For the setting “in C1CCOC1”, `Cc1csc(C)c1C1=C(c2c(C)sc(-c3ccc(-c4nc(-c5ccccc5)c(-c5ccccc5)[nH]4)cc3)c2C)C(F)(F)C(F)(F)C1(F)F` showed an emission maximum of 410 nm.
For `COc1cc(-c2nc3sc4ccccc4c3s2)cc(OC)c1OC`, for the setting “in CS(C)=O”, the emission maximum is reported as 424 nm.
For the molecule `CCC[Si](CCC)(CCC)c1cc2ccc3cccc4ccc(c1C(=O)NC(C)(C)C)c2c34`, the emission maximum (in ClC(Cl)Cl) is 383 nm.
With `N#Cc1ccccc1N1c2ccccc2C(c2ccccc2)(c2ccccc2)c2ccccc21`, the emission maximum (in Cc1ccccc1) is recorded as 441 nm.
On to `CCCCC(CC)COc1ccc2nc(-c3ccc(-c4ccc(OC)cc4)s3)sc2c1` (centres undefined), for which, for the setting “in ClCCl”, the emission maximum was found to be 434 nm.
As to `c1ccc([B-]23NC(C4CCCCC4)=Nc4cccc([n+]42)N=C(C2CCCCC2)N3)cc1`, the emission maximum (in ClCCl) is listed as 456 nm.
